molecular target: T1, Dipeptidyl Peptidase-IV (DPP-IV) (Homo sapiens, UniProt P27487); assay: Measurement of DPP-IV Activity-Inhibiting Ability (fluorescent substrate Ac-Gly-Pro-AFC); type: biochemical; details: 25° C., 50 mmol HEPES (pH 7.4), DP-IV 7.1 nM, enzyme reaction for 1 hour
T1 construct: made in house
Method in brief: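 Fluorescence (ex 400 nm, em 505 nm) from cleavage of Ac-Gly-Pro-AFC ([…]) tracked activity at various inhibitor concentrations. Reactions used 7.1 nM recombinant enzyme, expressed in baculovirus and purified on nickel, in 50 mmol HEPES pH 7.4 at 25 °C.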

T1 sequence (P27487 whole entry): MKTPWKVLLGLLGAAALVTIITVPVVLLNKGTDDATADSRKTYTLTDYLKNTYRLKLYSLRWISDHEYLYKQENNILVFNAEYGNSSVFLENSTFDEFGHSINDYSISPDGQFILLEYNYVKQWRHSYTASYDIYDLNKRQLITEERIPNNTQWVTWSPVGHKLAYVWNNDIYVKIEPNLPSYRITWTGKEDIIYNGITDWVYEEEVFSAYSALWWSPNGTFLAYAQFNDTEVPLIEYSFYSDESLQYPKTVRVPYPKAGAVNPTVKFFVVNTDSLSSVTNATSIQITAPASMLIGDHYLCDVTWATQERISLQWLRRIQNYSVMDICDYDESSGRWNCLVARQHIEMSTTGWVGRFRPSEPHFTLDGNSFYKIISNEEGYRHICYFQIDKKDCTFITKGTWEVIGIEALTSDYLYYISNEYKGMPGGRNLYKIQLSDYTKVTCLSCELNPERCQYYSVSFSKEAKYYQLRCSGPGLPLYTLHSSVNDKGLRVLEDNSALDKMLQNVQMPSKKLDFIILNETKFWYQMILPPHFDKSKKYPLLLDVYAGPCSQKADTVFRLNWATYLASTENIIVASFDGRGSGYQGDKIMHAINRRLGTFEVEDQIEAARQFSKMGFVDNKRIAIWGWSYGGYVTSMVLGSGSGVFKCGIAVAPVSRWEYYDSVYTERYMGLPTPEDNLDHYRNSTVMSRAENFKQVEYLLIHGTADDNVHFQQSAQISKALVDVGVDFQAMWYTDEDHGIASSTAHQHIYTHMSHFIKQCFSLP

IC50 | Structure (SMILES)
0.048 µM | N[C@@H](CC(=O)N1CCc2c(nc(-c3ccncc3)nc2C(F)(F)F)C1)CN1CC(F)(F)CCC1=O [Ex. 57, 1-{(2S)-2-amino-4-oxo-4-[2-pyridin-4-yl-4-(trifluoromethyl)-5,8-dihydropyrido[3,4-d]pyrimidin-7(6H)-yl]butyl}-5,5-difluoropiperidin-2-one]
0.005 µM | C[C@@H]1CCC(=O)N(C[C@@H](N)CC(=O)N2CCc3c(nc(-c4ccco4)nc3C(F)(F)F)C2)C1 [Ex. 64, (5R)-1-{(2S)-2-amino-4-[2-(2-furyl)-4-(trifluoromethyl)-5,8-dihydropyrido[3,4-d]pyrimidin-7(6H)-yl]-4-oxobutyl}-5-methylpiperidin-2-one]
2.02 µM | N[C@@H](CC(=O)N1CCc2ccccc2C1)CN1CCCCC1=O [Ex. 17, 1-[2S-amino-4-(3,4-dihydro-1H-isoquinolin-2-yl)-4-oxo-butyl]-piperidin-2-one]
0.029 µM | N[C@@H](CC(=O)N1CCc2c(nc(CF)nc2C(F)(F)F)C1)CN1CC(F)(F)CCC1=O [Ex. 102, 1-{(2S)-2-amino-4-[2-(fluoromethyl)-4-(trifluoromethyl)-5,8-dihydropyrido[3,4-d]pyrimidin-7(6H)-yl]-4-oxobutyl}-5,5-difluoropiperidin-2-one]
> 10 µM | N[C@@H](CC(=O)N1CCn2c(nnc2C(F)(F)F)C1)CN1CCCC(F)C1=O (stereo partly drawn) [Ex. 7, 1-[2S-amino-4-oxo-4-(3-trifluoromethyl-5,6-dihydro-8H-[1,2,4]triazolo[4,3-a]pyrazin-7-yl)-butyl]-3-fluoro-piperidin-2-one]
0.95 µM | CC1CN(C[C@@H](N)CC(=O)N2CCn3c(nnc3C(F)(F)F)C2)C(=O)O1 (stereo partly drawn) [Ex. 2, 3-[2S-amino-4-oxo-4-(3-trifluoromethyl-5,6-dihydro-8H-[1,2,4]triazolo[4,3-a]pyrazin-7-yl)-butyl]-5-methyl-oxazolidin-2-one]
0.005 µM | N[C@@H](CC(=O)N1CCc2c(nc(-c3cccnc3)nc2C(F)(F)F)C1)CN1CC(F)(F)CCC1=O [Ex. 71, 1-{(2S)-2-amino-4-oxo-4-[2-pyridin-3-yl-4-(trifluoromethyl)-5,8-dihydropyrido[3,4-d]pyrimidin-7(6H)-yl]butyl}-5,5-difluoropiperidin-2-one]
0.018 µM | CCCc1nc2c(c(C(F)(F)F)n1)CCN(C(=O)C[C@H](N)CN1CC(F)(F)CCC1=O)C2 [Ex. 100, 1-{(2S)-2-amino-4-oxo-4-[2-propyl-4-(trifluoromethyl)-5,8-dihydropyrido[3,4-d]pyrimidin-7(6H)-yl]butyl}-5,5-difluoropiperidin-2-one]
0.027 µM | CCc1nc2c(c(C(F)(F)F)n1)CCN(C(=O)C[C@H](N)CN1C[C@H](C)OCC1=O)C2 [Ex. 73, (6S)-4-{(2S)-2-amino-4-[2-ethyl-4-(trifluoromethyl)-5,8-dihydropyrido[3,4-d]pyrimidin-7(6H)-yl]-4-oxobutyl}-6-methylmorpholine-3-one]
0.075 µM | N[C@@H](CC(=O)N1CCn2c(nnc2C(F)(F)F)C1)CN1CC(F)(F)CCC1=O [Ex. 11, 1-[2S-amino-4-oxo-4-(3-trifluoromethyl-5,6-dihydro-8H-[1,2,4]triazolo[4,3-a]pyrazin-7-yl)-butyl]-5,5-difluoro-piperidin-2-one]
0.217 µM | N[C@@H](CC(=O)N1CCn2c(nnc2C(F)(F)F)C1)CN1CCC(C(F)(F)F)CC1=O (stereo partly drawn) [Ex. 14, 1-[2S-amino-4-oxo-4-(3-trifluoromethyl-5,6-dihydro-8H-[1,2,4]triazolo[4,3-a]pyrazin-7-yl)-butyl]-4-trifluoromethyl-piperidin-2-one]
0.021 µM | N[C@@H](CC(=O)N1CCc2c(nc(-c3ccc(F)cc3)nc2C(F)(F)F)C1)CN1CC(F)(F)CCC1=O [Ex. 30, 1-{(2S)-2-amino-4-[2-(4-fluorophenyl)-4-(trifluoromethyl)-5,8-dihydropyrido[3,4-d]pyrimidin-7(6H)-yl]-4-oxobutyl}-5,5-difluoropiperidin-2-one]
0.01 µM | N[C@@H](CC(=O)N1CCc2c(nc(-c3ccoc3)nc2C(F)(F)F)C1)CN1CC(F)(F)CCC1=O [Ex. 67, 1-{(2S)-2-amino-4-[2-(3-furyl)-4-(trifluoromethyl)-5,8-dihydropyrido[3,4-d]pyrimidin-7(6H)-yl]-4-oxobutyl}-5,5-difluoropiperidin-2-one]
0.114 µM | N[C@@H](CC(=O)N1CCc2sc(C(F)(F)F)nc2C1)CN1CC(F)(F)CCC1=O [Ex. 51, 1-{(2S)-2-amino-4-oxo-4-[2-(trifluoromethyl)-6,7-dihydro[1,3]thiazolo[4,5,c]pyridin-5(4H)-yl]butyl}-5,5-difluoropiperidin-2-one]
0.019 µM | CCCc1nc2c(c(C(F)(F)F)n1)CCN(C(=O)C[C@H](N)CN1C[C@H](C)CCC1=O)C2 [Ex. 99, (5R)-1-{(2S)-2-amino-4-oxo-4-[2-propyl-4-(trifluoromethyl)-5,8-dihydropyrido[3,4-d]pyrimidin-7(6H)-yl]butyl}-5-methylpiperidin-2-one]
2.5 µM | N[C@@H](CC(=O)N1CCn2c(nnc2C(F)(F)F)C1)CN1CC(C(F)(F)F)CCC1=O (stereo partly drawn) [Ex. 15, 1-[2S-amino-4-oxo-4-(3-trifluoromethyl-5,6-dihydro-8H-[1,2,4]triazolo[4,3-a]pyrazin-7-yl)-butyl]-5-trifluoromethyl-piperidin-2-one]
0.016 µM | CC(C)c1nc2c(c(C(F)(F)F)n1)CCN(C(=O)C[C@H](N)CN1C[C@H](C)CCC1=O)C2 [Ex. 75, 1-{(2S)-2-amino-4-[2-isopropyl-4-(trifluoromethyl)-5,8-dihydropyrido[3,4-d]pyrimidin-7(6H)-yl]-4-oxobutyl}-5-methylpiperidin-2-one]
0.02 µM | N[C@@H](CC(=O)N1CCc2c(nc(CC3CC3)nc2C(F)(F)F)C1)CN1CC(F)(F)CCC1=O [Ex. 55, 1-{(2S)-2-amino-4-[2-(cyclopropylmethyl)-4-(trifluoromethyl)-5,8-dihydropyrido[3,4-d]pyrimidin-7(6H)-yl]-4-oxobutyl}-5,5-difluoropiperidin-2-one]
0.013 µM | N[C@@H](CC(=O)N1CCc2c(nc(C3CCC3)nc2C(F)(F)F)C1)CN1CC(F)(F)CCC1=O [Ex. 113, 1-{(2S)-2-amino-4-[2-cyclobutyl-4-(trifluoromethyl)-5,8-dihydropyrido[3,4-d]pyrimidin-7(6H)-yl]-4-oxobutyl}-5,5-difluoropiperidin-2-one]
0.199 µM | N[C@@H](CC(=O)N1CCc2c(nc(-c3cccc(F)c3)nc2C(F)(F)F)C1)CN1CC(F)(F)CCC1=O [Ex. 32, 1-{(2S)-2-amino-4-[2-(3-fluorophenyl)-4-(trifluoromethyl)-5,8-dihydropyrido[3,4-d]pyrimidin-7(6H)-yl]-4-oxobutyl}-5,5-difluoropiperidin-2-one]
0.026 µM | COCCc1nc2c(c(C(F)(F)F)n1)CCN(C(=O)C[C@H](N)CN1CC(F)(F)CCC1=O)C2 [Ex. 53, 1-{(2S)-2-amino-4-[2-(2-methoxyethyl)-4-(trifluoromethyl)-5,8-dihydropyrido[3,4-d]pyrimidin-7(6H)-yl]-4-oxobutyl}-5,5-difluoropiperidin-2-one]
0.141 µM | CC1CCN(C[C@@H](N)CC(=O)N2CCn3c(nnc3C(F)(F)F)C2)C(=O)C1 (stereo partly drawn) [Ex. 10, 1-[2S-amino-4-oxo-4-(3-trifluoromethyl-5,6-dihydro-8H-[1,2,4]triazolo[4,3-a]pyrazin-7-yl)-butyl]-4-methyl-piperidin-2-one]
0.356 µM | C[C@H]1CN(C[C@@H](N)CC(=O)N2CCn3c(nnc3C(F)(F)C(F)(F)F)C2)C(=O)CO1 [Ex. 90, (6S)-4-{(2S)-2-amino-4-oxo-4-[3-(pentafluoroethyl)-5,6-dihydro[1,2,4]triazolo[4,3-a]pyrazin-7(8H)-yl]butyl}-6-methylmorpholine-3-one]
0.054 µM | N[C@@H](CC(=O)N1CCc2c(nc(C(F)(F)F)nc2C(F)(F)F)C1)CN1CC(C(F)(F)F)CC1=O (stereo partly drawn) [Ex. 108, 1-{(2S)-2-amino-4-[2,4-bis(trifluoromethyl)-5,8-dihydropyrido[3,4-d]pyrimidin-7(6H)-yl]-4-oxobutyl}-4-(trifluoromethyl)pyrrolidin-2-one]
0.051 µM | N[C@@H](CC(=O)N1CCc2c(nc(-c3ccc(F)c(F)c3)nc2C(F)(F)F)C1)CN1CC(F)(F)CCC1=O [Ex. 35, 1-{(2S)-2-amino-4-[2-(3,4-difluorophenyl)-4-(trifluoromethyl)-5,8-dihydropyrido[3,4-d]pyrimidin-7(6H)-yl]-4-oxobutyl}-5,5-difluoropiperidin-2-one]
0.422 µM | C[C@H]1CN(C[C@@H](N)CC(=O)N2CCc3sc(C(F)(F)F)nc3C2)C(=O)CO1 [Ex. 50, (6S)-4-{(2S)-2-amino-4-oxo-4-[2-(trifluoromethyl)-6,7-dihydro[1,3]thiazolo[4,5,c]pyridin-5(4H)-yl]butyl}-6-methylmorpholine-3-one]
> 10 µM | N[C@@H](CC(=O)N1CCn2c(nnc2C(F)(F)F)C1)CN1CCOC1=O [Ex. 1, 3-[2S-amino-4-oxo-4-(3-trifluoromethyl-5,6-dihydro-8H-[1,2,4]triazolo[4,3-a]pyrazin-7-yl)-butyl]-oxazolidin-2-one]
0.074 µM | CC1=CC(=O)N(C[C@@H](N)CC(=O)N2CCc3c(nc(C(F)(F)F)nc3C(F)(F)F)C2)C1 [Ex. 103, 1-{(2S)-2-amino-4-[2,4-bis(trifluoromethyl)-5,8-dihydropyrido[3,4-d]pyrimidin-7(6H)-yl]-4-oxobutyl}-4-methyl-1,5-dihydro-2H-pyrrol-2-one]

Reference: patent US7879848B2, “Dipeptidyl Peptidase-IV inhibiting compounds, method of preparing the same, and pharmaceutical compositions containing the same as an active agent” (LG Life Sciences, Ltd., priority 2005, dated 2011)
